Key:
[1] = Glass formation of the DNP preparation upon rapid freezing in liquid nitrogen; type: physicochemical; conditions: for Glass formation upon rapid freezing in liquid nitrogen: dissolved in 12 M NaOH with radical 1; for Glass formation upon rapid freezing: with trityl radical, without addition of glass-forming agents
Protocol: Butyric acid (11.7 mg, 0.13 mmol) was placed into an Eppendorf tube and mixed with 9.0 mg of a glycerol solution containing 39 mM of Radical 1. This preparation was 7 M with respect to butyric acid.
Butyric anhydride (40 μl, 0.24 mmol) was added to an Eppendorf tube and mixed with 1 mg of Radical 3 in a total concentration of 15 mM. This preparation was 6.5 M with respect to butyric anhydride (which, upon hydrolysis provides a 13 M concentration in butyric acid molecules).
Butyric acetic anhydride (36 μl, 0.28 mmol) was added to an Eppendorf tube and mixed with 0.85 mg of acid form of Radical 3 in a total concentration of 15 mM. This preparation was 7.5 M with respect to butyric acetic acid.
Li-acetoacetate (22.4 mg, 0.21 mmol) was added to an Eppendorf tube and mixed with 28 μl of a DMSO preparation (25 mM Radical 3 and 0.8 mM 3-Gd). This preparation was 4 M with respect to Li-acetoacetate.
To an Eppendorf tube was added diketene (9.6 mg, 0.11 mmol) and mixed with 4.7 mg of a DMSO preparation of Radical 3 (45 mM) and 3-Gd (1.5 mM). This preparation was 8.5 M with respect to diketene.
Ethyl acetoacetate (45 μl, 0.34 mmol) was added to an Eppendorf tube and mixed with acid form of Radical 2 (0.7 mg, 0.65 μmol) in a total concentration of 15 mM. This preparation was 8 M with respect to ethyl acetoacetate.
Cis-aconitic acid (18.6 mg, 0.11 mmol) was added to an Eppendorf tube and mixed with a 32.5 μl DMSO preparation (25 mM Radical 3 and 0.8 mM 3-Gd). This preparation was 2.5 M with respect to cis-aconitic acid.
Cis-aconitic anhydride (188 mg, 1.2 mmol) was added to an Eppendorf tube and mixed with 2.85 mg (2 μmol) of Radical 1 and 0.98 mg of a 83 μmol/g solution of 3-Gd. This preparation was 9 M with respect to cis-aconitic anhydride.
Succinic acid (42.1 mg, 0.35 mmol) was added to an Eppendorf tube and mixed and mixed with 92 mg of a DMSO preparation (20 mM Radical 3 and 0.8 mM 3-Gd). This preparation was 4 M with respect to succinic acid.
Succinic anhydride (21.5 mg, 0.21 mmol) was added to an Eppendorf tube and mixed with 21.8 mg of a DMSO solution of Radical 3 (30 mM) and of 3-Gd (1 mM). This preparation was 6 M with respect to succinic anhydride.
Succinic-(1)-ethyl ester (111 mg, 0.75 mmol) was added to an Eppendorf tube and mixed with the carboxylic acid form of Radical 2 (2.4 mg, 1.5 μmol) and 3-Gd (3.4 μl of a 14.5 mM solution in water). This preparation was 6 M with respect to succinic-(1)-ethyl ester.
(§1) L-Glutamine (50.9 mg, 0.35 mmol) was added to an Eppendorf tube and dissolved in 29 μl of 12 M NaOH and mixed with 1.7 mg of radical 1 and 3-Gd (2.3 μl of a 14.5 mM water stock solution). This preparation was 4 M with respect to L-glutamine.

[2] = DNP solid-state polarization signal and build-up (1.2 K, 3.35 T); conditions: DNP at 1.2 K
Protocol: To this solution 1.1 mg (0.77 μmol) radical 1 was added. […] This entire sample was hyperpolarized under DNP conditions at 1.2 K in a 3.35 T magnetic field under irradiation with microwave (93.900 GHz) until the polarization was fully build-up. The polarization was monitored in solid state with small pulse angles (5 degree) collected every 300 s.
This entire sample was polarized under DNP conditions at 1.2 K in a 3.35 T magnetic field under irradiation with microwave (93.900 GHz) until the polarization was fully built-up. The polarization was monitored in solid state with small pulse angles (5 degree) collected every 300 s.
To this solution 0.77 mg (0.54 μmol) radical 1 was added. […] This entire sample was polarized under DNP conditions at 1.2 K in a 3.35 T magnetic field under irradiation with microwave (93.900 GHz) until the polarization was fully built-up. The polarization was monitored in solid state with small pulse angles (5 degree) collected every 300 s.
To this solution 1.65 mg (1.15 μmol) radical 1 was added. […] This entire sample was polarized under DNP conditions at 1.2 K in a 3.35 T magnetic field under irradiation with microwave (93.900 GHz) until the polarization was fully built-up. The polarization was monitored in solid state with small pulse angles (5 degree) collected every 300 s.
63.2 mg (0.33 mmol) of this sample was hyperpolarized under DNP conditions at 1.2 K in a 3.35 T magnetic field under irradiation with microwave (93.900 GHz) until the polarization was fully built-up.

[3] = Hydrolysis of the DNP hyperpolarized precursor on dissolution with strong base, followed by 13C-NMR time series; type: physicochemical; conditions: water with added NaOH
Protocol: (§2) The composition from example 1b (25 mg, 0.16 mmol) was transferred from the Eppendorf tube to a sample cup and the sample cup was inserted into a DNP polariser. The composition was hyperpolarised under DNP conditions at 1.2 K in a 3.35 T magnetic field under irradiation with microwave (93.915 GHz). The sample was hyperpolarized for 75 min.
The sample was dissolved in 4 ml water with added NaOH (50 μl of 12M solution). The pH of the dissolved sample was 12. The solution was collected directly into a 10 mm NMR tube and transferred to a 14.1 T magnet where a time series of 5 degree 1D 13C-NMR spectra were recorded with a total delay between the pulses of 1 s.
as §2, with “is (33” for “1b (25”, “0.25” for “0.16”, “90” for “75”
The sample was dissolved in 5 ml water with added NaOH (125 μl of 12M). The solution was collected directly into a 10 mm NMR tube and transferred to a 14.1 […]) T magnet where a time series of 5 degree 1D 13C-NMR spectra were recorded with a total delay between the pulses of 1 s.
(§3) The entire composition from example 2b was transferred from the Eppendorf tube to a sample cup and the sample cup was inserted into a DNP polariser. The composition was hyperpolarised under DNP conditions at 1.2 K in a 3.35 T magnetic field under irradiation with microwave (93.915 GHz). The sample was hyperpolarized for 3 hours.
(§4) The sample was dissolved in 5 ml water with added NaOH (125 μl of 12 M). The solution was collected directly into a 10 mm NMR tube and transferred to a 14.1 T magnet (pH 13) where a time series of 64 five degree 1D 13C-NMR spectra were recorded with a total delay between the pulses of 3 s.
as §2, with “is (20.5” for “1b (25”, “2 hours.” for “75 min.”
(§5) The sample was dissolved in 5 ml water with added NaOH (200 μl of 12 M). The solution was collected directly into a 10 mm NMR tube and transferred to a 14.1 T magnet (pH 12.8) where a time series of 5 degree 1D 13C-NMR spectra were recorded with a total delay between the pulses of 3 s.
as §3, with “The” for “The entire”, “2b was melted on a water-bath and stirred with a magnetic stirrer. 45 mg of this preparation (0.29 mmol)” for “2b”, “90 min.” for “3 hours.”
(§6) The sample was dissolved in 6 ml water with added NaOH (190 μl of 12 M). The solution was collected directly into a 10 mm NMR tube and transferred to a 14.1 T magnet (pH 12.8) where a time series of 64 five degree 1D 13C-NMR spectra were recorded with a total delay between the pulses of 3 s.

[4] = Glass formation of the DNP preparation upon rapid freezing in liquid nitrogen; type: physicochemical; conditions: dissolved in heated water with Radical 1 and 3-Gd
[5] = system: carboxylic-ester hydrolase from porcine liver; assay: Enzymatic hydrolysis of the hyperpolarized ester with esterase, 13C-NMR time series; type: biochemical; conditions: approximately 270 U esterase, phosphate buffer pH 7.3, 37° C.
Source text: The ester was fully hydrolyzed to acetoacetate after 12s.

[6] = target: T1, acylase from porcine kidney (Sus scrofa, UniProt P37111); assay: Enzymatic hydrolysis of the hyperpolarized N-acetyl amino acid with acylase, 13C-NMR time series; type: biochemical; conditions: phosphate buffer pH 7.3, 37° C.
T1 construct: an acylase from porcine kidney; from tissue; host or cells: porcine kidney
T1 sequence (P37111 2-407 limits assumed): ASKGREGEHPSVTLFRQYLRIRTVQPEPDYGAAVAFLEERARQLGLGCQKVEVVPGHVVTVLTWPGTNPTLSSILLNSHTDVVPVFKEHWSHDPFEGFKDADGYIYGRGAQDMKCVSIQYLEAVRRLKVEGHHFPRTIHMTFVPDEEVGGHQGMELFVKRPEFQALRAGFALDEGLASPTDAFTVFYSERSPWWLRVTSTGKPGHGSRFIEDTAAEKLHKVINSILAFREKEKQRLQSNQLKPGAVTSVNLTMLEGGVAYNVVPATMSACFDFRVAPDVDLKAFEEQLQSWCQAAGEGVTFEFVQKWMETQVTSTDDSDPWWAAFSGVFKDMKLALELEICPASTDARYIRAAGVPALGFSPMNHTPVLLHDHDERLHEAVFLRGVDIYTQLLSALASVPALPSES
Protocol: The sample was hyperpolarized for 60 min.
The 10 mm NMR tube contained a 1 ml phosphate solution of approximately 90 U of an acylase from porcine kidney.
35 mg of N-acetyl glycine (117.1 g/mol, 0.298 mmol) was dissolved in 26 μl 12 M NaOH. Heating, sonication and vortexing was applied to create a clear glassing solution. The total weight of the sample was 71 mg (50 μl weigh 65 mg). 1.05 mg Radical 1 and 1.5 μl of a 3-Gd stock solution ([…]) was added. The total N-acetyl glycine concentration in the sample was 5.5 M, the radical concentration was 13.5 mM, and the 3-Gd concentration was 0.4 mM.
The sample was dissolved in 7 ml 40 mM phosphate buffer (40 mM, pH 7.3). […] The 10 mm NMR tube contained a 500 μl phosphate solution of approximately 230 U of an acylase (5.2 mg) from porcine kidney.

[7] = Degradation / isomerisation of the substrate in DNP preparation and dissolution (NMR)
Protocol: as §3, with “2a” for “2b”, “75 min.” for “3 hours.”
The sample was dissolved in 5 ml phosphate buffer pH 7.3 (40 mM+EDTA).
The solution was collected directly into a 10 mm NMR tube and transferred to a 14.1 T magnet where a 90 degree 1D 13C-NMR spectrum was recorded.
as §4, §5
The sample was dissolved in 5 ml 40 mM phosphate buffer pH 7.3+100 mg/l EDTA, thus resulting in an ester concentration of 20 mM. 1 ml of the ester solution was injected through a transfer line into a 10 mm NMR tube placed at 14.1 T and 37° C. The 10 mm NMR tube contained a 500 μl solution of approximately 270 U of a carboxylic-ester hydrolase from porcine liver. A time series of 10 degree 1D 13C-NMR spectra were recorded with a total delay between the pulses of 3 s.
as §5, with “phosphate buffer (40 mM, pH 7.3)” for “water”, “30” for “NaOH (200”, “μl” for “μl of”, “M NaOH. […]” for “M).”, “magnet” for “magnet (pH 12.8)”
as §6, §1
N-acetyl-L-glutamine (57.2 mg, 0.3 mmol) was added to an Eppendorf tube and dissolved in 25.3 μl of 12 M NaOH and mixed with 1.9 mg of radical 1 and 3-Gd (2.3 μl of a 14.5 mM water stock solution).

| Structure (SMILES) | Glass formation upon rapid freezing in liquid nitrogen [1] | Polarization build-up time constant [2] [s] | Glass formation upon rapid freezing [1] | other results |
| --- | --- | --- | --- | --- |
| C=C(CC(=O)O)[13C](=O)O [1-13C Itaconic acid, reference compound] | formed a glass | 1790 | – | – |
| CCO[13C](=O)C1CSC(=O)N1 (centres unmarked) [1-13C OTZ ethyl ester] | – | 1925 | formed a glass | – |
| O=C1N[C@H]([13C](=O)O)CS1 [1-13C OTZ, 1-13C-L-oxothiazolidine-4-carboxylic acid, reference compound] | formed a glass | 3500 | – | – |
| O=C1CCC([13C](=O)O)N1 (centres unmarked) [1-13C Pyroglutamic acid, reference compound] | formed a glass | 2000 | – | – |
| CCOC(=O)C1CCC(=O)N1 (centres unmarked) [1-13C pyroglutamic ethyl ester] | – | 2070 | formed a glass | Precursor hydrolyzed ([3]; in less than 10 s, pH 11-12.6): at least 95% |
| O=C([O-])CCC(=O)C(=O)[O-].[Na+].[Na+] [2-oxoglutarate sodium salt] | – | – | – | Glass formation upon rapid freezing in liquid nitrogen [4]: formed a glass |
| CCOC(=O)CC(C)=O [Ethyl acetoacetate] | – | – | formed a glass | Precursor hydrolyzed ([3]; after 10 s, pH 12-13): approximately 20%; Time after which ester was fully hydrolyzed [5]: 12 s |
| CC(=O)NCC(=O)O [N-acetyl glycine] | – | – | – | Time after which precursor was fully hydrolyzed ([6]; approximately 230 U acylase): 30 s |
| CC(=O)N[C@@H](CCC(N)=O)C(=O)O [N-acetyl-L-glutamine] | formed a glass | – | – | Degradation in the DNP preparation [7]: does not degrade; Degradation in the dissolution process ([7]; pH 7.3): does not degrade; Time after which precursor was fully hydrolyzed ([6]; approximately 90 U acylase): 45 s |
